Row | melting point [°C] | SMILES
1 | 110 to 112 | CN(SC(Cl)(Cl)Cl)C(=O)OC(C(Oc1ccc(Cl)cc1)n1cncn1)C(C)(C)C (stereo not drawn)
2 | 221 to 223 | CC(C)n1nc(-c2cc(C#N)c(C(N)=O)nc2-c2ccccc2)ccc1=O
3 | 94 to 96 | COc1ccc2[nH]c(SCc3ncnc(N4CCCCC4)c3C)nc2c1
4 | 135 to 136 | CC1=C(C(=O)OCCC#N)C(c2c(F)cccc2Cl)C(C(=O)OC2CCCC2)=C(C)N1 (stereo not drawn)
5 | 76 to 77 | OCCOc1ccc(I)cc1
6 | 135 to 136 | CCN(c1ccc([N+](=O)[O-])cc1[N+](=O)[O-])S(=O)(=O)c1ccc(C)cc1
7 | 144 to 145 | O=C1c2cc(Cl)c(Cl)cc2C(=O)N1CCCl
8 | > 245 | N#Cc1cnc2sc(-c3ccccc3)cc2c1Nc1ccc2[nH]ccc2c1
9 | 104 to 106 | CCC[C@@](CCc1ccccc1)(CC(=O)OCOc1ccc(-c2ccccc2)cc1)OCOc1ccc(-c2ccccc2)cc1
10 | 147 to 150 | CC(=O)Oc1ccc(-c2c3ccccc3cc3sc(C)c(C)c23)cc1
11 | 128 to 130 | O=C(NCCC1CC2CCC1C2)n1cc(F)c(=O)[nH]c1=O (stereo not drawn)
12 | 180 to 184 | CN1C(C)(C)CC2(CC1(C)C)NC(=O)N(CC(O)COC(=O)CCCCC(=O)OCC(O)CN1C(=O)NC3(CC(C)(C)N(C)C(C)(C)C3)C1=O)C2=O (stereo not drawn)
13 | 237 to 238 | O=C(O)c1ccc(C(=O)NCCc2ccccc2)cc1
14 | 164 to 166 | COc1ccc(-c2c3c(c(O)c4cc(OC)c(OC)c(OC)c24)C(=O)CCC3)cc1OC
15 | 213 to 214 | Cc1cccc(Cl)c1NC(=O)/C=C1\SCC(=O)N1c1ccccc1
16 | 110 | COc1ccc(CCC(=O)c2c(O)cc(OC)cc2OC)cc1
17 | 216 to 217 | O=c1[nH]c(=O)n(C2OC(CO)C(O)C2F)cc1I (stereo not drawn)
18 | 104 to 105 | CCn1c2cc(C)ccc2c2ccc3ccccc3c21
19 | 115 to 118 | CCC1CSC(CCc2ccccc2)(Cn2ccnc2)S1 (stereo not drawn)
20 | 73 | C=C1NC(=O)N(CCCC)C1=O

Row | melting point [°C] | SMILES
21 | 215 to 216 | Cc1nnsc1C(=O)c1[nH]c2cc(Cl)ccc2c1CC(=O)O
22 | 167 to 168 | CCCCc1cc(C#N)sc1-c1ccc2c(c1)C(C)(C)OC(=O)N2
23 | 129 to 132 | CC(CNc1nc(N)nc2c1ncn2C1OC(CO)C(O)C1O)(c1ccccc1)c1ccccc1 (stereo not drawn)
24 | 74 to 75 | COc1c(C)cc(N=C=S)cc1C(=S)N(C)C
25 | 184 to 186 | O=C1c2cc3nnn(Cc4ccccn4)c(=O)c3cc2OC2CCCN12 (stereo not drawn)
26 | 84 to 92 | CN(C)CCCNC(=O)[C@@H](Cc1ccc(-c2ccccc2)cc1)NC(=O)CC(C)(C)CC(=O)O
27 | 115 | Cn1c(=O)cc(CCc2cccc(Cl)c2)c2cc(C(O)(c3ccc(Cl)cc3)c3cccnc3)ccc21 (stereo not drawn)
28 | 105 to 107 | COc1cc2ccccc2cc1NC(=O)N1CCN(c2cc(C)cc(C)c2)CC1
29 | 113 to 115 | CC(C)c1cccc(C(C)C)c1NC(=O)CN1CCN(CCCSc2nc3ccccc3s2)CC1
30 | 166 to 168 | COc1ccc(Cn2ncc(N3CCOCC3)c(C=NO)c2=O)cc1
31 | 81 to 83 | CCOC(=O)COc1ccc(NC(=O)OC(C)(C)C)cc1OC
32 | 77 | COC(=O)c1ccc(OCC(C)C)c([N+](=O)[O-])c1
33 | > 350 | O=C1N=c2cc(O)c(O)c(O)c2=NC1=O
34 | 170 | O=c1[nH]c2ccccc2n1CCN1CCN(c2cc(O)cc(C(F)(F)F)c2)CC1
35 | 78 to 80 | Cn1c(CC#N)ccc1C(=O)Cl
36 | 132 to 135 | Cc1nn(-c2cc(C(=O)O)c(Cl)cc2F)c(=O)n1C(F)F
37 | 257 to 264 | O=C(O)CN1C(=O)C(=Cc2ccc3ccccc3c2)SC1=S
38 | 229 to 230 | Cc1cc(-c2nc3cccnn3c2-c2ccnc(NC(=O)c3cccc4cccnc34)c2)ccc1F
39 | 43 to 44 | COC(=O)CCCc1ccc(C(=O)C=Cc2ccccc2)cc1

The remaining lines, values behind:

Row | SMILES | melting point [°C]
40 | COc1ccc2c(c1)OC(=O)C(C)(C#Cc1ccccc1)C2 (stereo not drawn) | 136 to 138
41 | CCOC(=O)c1cn(CC)c2sc(C=O)cc2c1=O | 205
42 | CCN(c1cccc2cc(-c3ncc(COc4ccc(C(=O)O)cc4)s3)[nH]c12)S(=O)(=O)c1cccs1 | 188
43 | CC(=O)OC1CSC(Sc2ccc3ccccc3c2)C(OC(C)=O)C1OC(C)=O (stereo not drawn) | 151
44 | CS(=O)c1ccc(OCc2ccccc2)c(C=O)c1 (stereo not drawn) | 103 to 104
45 | C[C@@H](C(=O)O)N(C)C(=O)c1cc(C(F)(F)F)cc([N+](=O)[O-])c1N | 136
46 | COc1cc(C2CCN(CC(N)=O)CC2)ccc1Nc1ncc2ccc(-c3ccccc3N(C)S(C)(=O)=O)n2n1 | 103 to 112
47 | COc1ccc(S(=O)(=O)c2ccccc2)cc1S(=O)(=O)NCCc1cccnc1 | 181 to 183
48 | CC(CO)Oc1cc(Oc2ccc(S(C)(=O)=O)cc2)cc2cc(C3=NCC(CCO)S3)[nH]c12 (stereo not drawn) | 165 to 169
49 | NC(=O)N1c2ccccc2CC(=NO)c2ccccc21 | 230 to 232
50 | C=C(C)COc1ccc(C)c2c1C(=O)CC2 | 74.2 to 75.2
51 | CSc1nc([C@@H]2C[C@H]2c2nc3ccccc3n2C)cc(-n2nc(C)nc2C)n1 (relative stereo) | 157 to 159
52 | Nc1ncccc1CNC(=O)C1Cc2ccccc2N1S(=O)(=O)c1ccc(-c2cccc(C(F)(F)F)c2)cc1 (stereo not drawn) | 94
53 | Cc1ccc(S(=O)(=O)OC(C)COc2c([N+](=O)[O-])ccc(F)c2F)cc1 (stereo not drawn) | 67 to 69
54 | CC1OC(n2c(Br)nc3cc(Cl)c(Cl)cc32)C(O)C1O (stereo not drawn) | 85 to 86
55 | Nc1nc(N)nc(-c2csc(-c3ccc(C(F)(F)F)cc3)n2)n1 | > 260
56 | CCC1CCC(=O)C=C1c1ccc(OCC(=O)O)cc1Cl (stereo not drawn) | 138 to 140
57 | CSCc1cc(N)ccc1O | 166
58 | O=C(Nc1cccc2c(NN3C(=O)CCC3=O)ccnc12)c1c(Cl)cccc1Cl | 170 to 173
59 | CC(C)n1nc(O)nc1Cl | 100 to 104

Row | SMILES | melting point [°C]
60 | Cc1nc(C)c2cc(-c3c(Cl)cccc3Cl)c(N)nc2n1 | 239 to 240
61 | CCCCCCCCCCOc1ccc(C(=O)C=O)cc1 | 81 to 83
62 | Cc1cc(C=O)cc(C=O)c1OCCCC(c1ccc(F)cc1)c1ccc(F)cc1 | 97
63 | COCOc1cccc2c1CCC2=O | 51 to 54
64 | CCN(C(=O)C1CC1)c1cccc(-c2ccnc3c(Cl)cnn23)c1 | 150 to 151
65 | COc1cc(CCCC2SC(=O)NC2=O)cc(OC)c1OCc1ccccc1 (stereo not drawn) | 101 to 102
66 | CCC(Oc1c(Cl)cccc1Cl)C(=O)OC1CC(O)C=C2C=CC(C)C(CCC3CC(O)CC(=O)O3)C21 (mixture of isomers) | 107 to 109
67 | Cc1oc(-c2cccc(-c3nc(CC(=O)OCc4ccccc4)c(C)o3)c2)nc1CC(=O)OCc1ccccc1 | 98 to 100
68 | N#CC(NCc1cccnc1)c1ccoc1 (stereo not drawn) | 80 to 82
69 | O=C(O)C1CSC(C2CCCCC2)N1 (mixture of isomers) | 248
70 | CC(C)(C)OC(=O)N[C@@H](CC(=O)OCc1ccccc1)C(=O)NCCc1ccc(C(=O)OCc2ccccc2)cc1 | 99 to 100
71 | NC(=O)CN1C(=O)C(=Cc2ccc(OCCc3ccccc3)c(OCc3ccccc3)c2)SC1=S | 212 to 214
72 | COC(=O)[C@H](COCc1ccccc1)NC(=O)Nc1n[nH]c(=S)s1 | 84 to 86
73 | CC(=O)Nc1ccccc1NS(=O)(=O)c1cc(C(=O)O)cc(NCc2ccco2)c1Oc1ccccc1 | 207 to 210
74 | COc1ccc(CNc2n[nH]c3ncnc(Nc4cccc(Cl)c4)c23)cc1O | 225 to 227
75 | CC1(C)CC(C)(C)CC2(CCCC(=O)N2)C1 | 126 to 128
76 | CC(O)(CC(=O)O)c1ccc(-c2ccc(F)cc2F)cc1 (stereo not drawn) | 121 to 123
77 | COCCOc1ccc(COC(=O)NS(=O)(=O)CCC(C)C)c(Oc2ncc(C(F)(F)F)cc2Cl)c1 | 122 to 124
78 | COc1ccc(C2Sc3cc(Oc4cccc(C)c4)ccc3NC(=O)C2O)cc1 (stereo not drawn) | 201 to 202
79 | O=C(CC1CCN(CCc2ccccc2)CC1)c1ccc(F)cc1 | 73 to 74

Row | SMILES | melting point [°C]
80 | CCCn1c(=O)c2[nH]c(/C=C/c3ccc4c(c3)OCCO4)nc2n(CCC)c1=O | > 275
81 | CCN(CC)C(=O)c1cc(-c2ccccc2)ccc1-c1ccccc1 | 128 to 130
82 | COc1cc(Cc2cnc(N)nc2N)cc(-c2ccc(N(C)C)cc2)c1OC | 230
83 | CCOC(=O)C1=C(C)NC(C)=C(C(=O)OCC)C1c1ccc(Cl)cc1 | 151 to 152
84 | O=c1[nH]c2ncc(-c3ccc(O)cc3)nc2n1C1CCOCC1 | 382 to 383
85 | Cc1ccc2ccc(C(=O)O)nc2c1 | 160 to 162
86 | CC(c1cc(Cl)cc([N+](=O)[O-])c1O)c1cc(Br)cc([N+](=O)[O-])c1O (stereo not drawn) | 161
87 | COc1cc(Cl)cc(C)c1Nc1nc2c(Cl)ccc(C(O)(C(C)C)C(C)C)c2n1C | 218 to 219
88 | CC(=O)CCc1ccc2c(c1)C(=O)c1ccccc1-2 | 75 to 77
89 | COC(=O)CCc1oc(-n2ccnc2SC)nc1-c1ccc(Cl)cc1 | 88 to 89
90 | O=C(O)c1ccc(OC(F)F)c2oc3ccc(C(F)(F)F)cc3c12 | 280
91 | CC(CCCl)=C1SC(=S)N(CC(=O)O)C1=O | 205 to 207
92 | CC(O)=C(C(=O)OC(c1ccccc1)c1ccccc1)N1C(=O)C(NC(=O)C(NC(=O)OC(C)(C)C)c2ccccc2)C1SS(=O)(=O)c1ccc(C)cc1 (stereo not drawn) | 182 to 184
93 | CN1C(=O)C2(CCN(CCCC(=O)c3ccc(F)cc3)CC2)c2ccccc21 | 95 to 96.5
94 | N#CC(C=N)CC(=O)c1ccc2ccccc2c1 (stereo not drawn) | 154 to 157
95 | Clc1cc(Cl)c(Cl)c(CBr)c1 | 40 to 42
96 | COc1cc(Nc2c(C#N)cnc3cc(-c4ccc(CN5CCOCC5)cn4)ccc23)c(Cl)cc1Cl | 220 to 222
97 | CCN1CCC(=NO)c2ccn(CCCCN3CCC(C(=O)c4ccc(F)cc4)CC3)c2C1=O | 158 to 160
98 | CN[C@@]1(C)CCN(c2c(-c3ccccc3)c(C)c(C#N)c3nc(C(=O)N(C)C)oc23)C1 | 172 to 174

From a melting point compilation (Tetko et al.; mined from patent text by program, amines drawn as free bases though some values may be those of a salt)
